Source: patent publication US20180002400A1, “SHORT PEPTIDE-BASED THERAPEUTIC AGENT AND MEDICINAL COMPOSITION INCLUDING THE SAME FOR INHIBITING ACTIVITIES OF CANCER CELLS” (NATIONAL CHENG KUNG UNIVERSITY, priority 2015, published 2018)

Legend:
lung cancer A549 cell [1] = test: Sphere formation (cancer stemness) induced by euPTX3; type: cell-based, human; details: short peptide 10 μg/mL or 225 nM + euPTX3 2.5 μg/mL, 2 weeks, FIG. 2A
Method: (§1) Each well of the multi-well plate with ultra-low attachment surface (Corning Inc.) was inoculated with the cell density 5×10^3 cells/well of the breast cancer MB231 cell, the lung cancer A549 cell and the nasopharyngeal cancer HONE1 cell, all of which were co-cultured with the short peptides R137, GI40, KT44 (10 μg/mL or 225 nM of the short peptide) and the polypeptide euPTX3 (2.5 μg/mL) of Example 1 in serum-free medium DMEM/F12 (Gibco) [containing B27 (Invitrogen), 20 ng/mL of epidermal growth factor (EGF; Abcam) and 10 ng/mL of basic Fibroblast Growth Factor (bFGF; Peprotech)]. After 2 weeks of cultivation, the cell spheres were observed by optical microscopy.

[2] = test system: nasopharyngeal cancer HONE1 cell; test: as above; type: cell-based, human; details: short peptide 10 μg/mL or 225 nM + euPTX3 2.5 μg/mL, 2 weeks, FIG. 3A
Method: as §1

breast cancer MB231 cell [3] = test: as above; type: cell-based, human; details: short peptide 10 μg/mL or 225 nM + euPTX3 2.5 μg/mL, 2 weeks, FIG. 1C
Method: as §1

[4] = test system: drug-resistant breast cancer MB231R (MBR) cells; test: Cancer cell invasion (matrigel-coated insert) induced by euPTX3; type: cell-based, human
[5] = test system: drug-resistant 4T1R breast cancer; test: Allograft tumor model, CDDP-resistant 4T1R cells in BALB/c mice; type: in vivo, mouse; details: 4T1R in BALB/c mice; for drug resistance generated by the tumor: 50 μg short peptide intratumorally twice weekly combined with CDDP 5 mg/kg i.p. once weekly; for drug resistance generated by the tumor / tumor growth (tumor size): FIG. 4A; for tumor growth (tumor size): 50 μg short peptide intratumorally twice weekly; for tumor metastasis and growth (images of tumors of various organs, epi-fluorescence radiance efficiency): IVIS imaging; for tumor metastasis (number of metastatic nodules per lung) / tumor growth (tumor weight per lung): sacrificed after six weeks; for tumor metastasis (number of metastatic nodules per lung): FIG. 4B left panel; for tumor growth (tumor weight per lung): FIG. 4B right panel
Method: In this Example, 1×10^6 mCherry fluorescent protein-labeled CDDP-resistant mouse 4T1 cells (4T1R; ATCC CRL-2539) were inoculated subcutaneously to the rear side of the back of six to eight-week-old female BALB/c mice (purchased from Laboratory Animal Center of National Cheng Kung University). After 1 week of inoculation, the mice were intraperitoneally injected with 5 mg/kg of CDDP [dissolved in 1% (w/v) DMSO] or only 1% (w/v) of DMSO once weekly, and intratumorally uninjected or injected with 50 μg of the short peptides RI37, GI40 and KT44 of Example 1 twice weekly. The mice were sacrificed after six weeks of inoculation. Spleen, kidneys, lungs and liver were obtained, tumor weight of those organs were measured according to 6 replications per group, and the metastatic activity and the number of metastatic nodules per organ were confirmed by IVIS Spectrum Imaging System 200 (Caliper). The tumor size was measured by a commercial external caliper, and the tumor volume (V) was calculated by the following formula (I): […]
In the formula (I), w was referred to tumor width, l was referred to tumor length. Each condition of the experiment was repeated at least thrice.

lung cancer A549 cell [6] = test: Cancer cell migration (Boyden chamber) induced by euPTX3; type: cell-based, human; details: A549; short peptide 10 μg/mL + euPTX3 2.5 μg/mL; FIG. 2C left panel
Method: (§2) The cell density 5×10^4 cells/well of the breast cancer MB231 cell, the lung cancer A549 cell and the nasopharyngeal cancer HONE1 cell were seeded into each upper insert of 24-well plate (containing 8-μm pore insert per well; BD Biosciences) for 19 hours, and each lower well was added with the short peptides RI37, GI40 and KT44 (10 μg/mL or 225 nM of the short peptide) and the polypeptide euPTX3 (2.5 μg/mL) of Example 1, for evaluating the influence of migration of the cancer cell of Example 2 using several short peptides of Example 1.
(§3) The cell density 5×10^4 cells/well of the breast cancer MB231 cell, the lung cancer A549 cell and the nasopharyngeal cancer HONE1 cell were seeded into each upper insert of Boyden chamber for 3 hours of cultivation.
(§4) And then, the medium in each upper insert was replaced by serum-free medium, and the medium in each lower well was added with the short peptides RI37, GI40, KT44 and the polypeptide euPTX3 of Example 1. The cells inside each upper insert were wiped with cotton swabs and removed after 16 hours of cultivation. Remaining cells that had migrated to the bottom of the insert membrane were stained by 4′,6-diamidino-2-phenylindole (DAPI; Invitrogen) and calculated under fluorescence microscopy with 200-fold magnification.

[7] = test system: nasopharyngeal cancer HONE1 cell; test: as above; type: cell-based, human; details: HONE1; short peptide 10 μg/mL + euPTX3 2.5 μg/mL; FIG. 3C left panel
Method: as §2, §3, §4

[8] = test system: drug-resistant breast cancer MB231R (MBR) cells; test: as above; type: cell-based, human
Method: [The procedure below names another cell line; the source lists this cell line under the same test.] as §2, §3, §4

lung cancer A549 cell [9] = test: Drug resistance (CDDP, 5-FU) induced by euPTX3, MTT assay; type: cell-based, human; details: A549; short peptide 10 μg/mL or 225 nM + euPTX3 2.5 μg/mL 1 week, then 40 μM CDDP or 100 μM 5-FU 48 hours; FIG. 2B
Method: (§5) The cell density 1×10^4 cells/well of the breast cancer MB231 cell, the lung cancer A549 cell and the nasopharyngeal cancer HONE1 cell were co-cultured with the short peptides RI37, GI40 and KT44 (10 μg/mL or 225 nM of the short peptide) and the polypeptide euPTX3 (2.5 μg/mL) of Example 1. After 1 week of cultivation, those cancer cells were added with 40 μM of CDDP or 100 μM of 5-FU respectively and cultured for 48 hours. Based on the cell viability of the cells only co-cultured with the polypeptide euPTX3 (2.5 μg/mL) as 100%, the influence of drug resistance of the cancer cells of Example 2 using the short peptides of Example 1 could be determined according to the aforementioned MTT assay.

[10] = test system: nasopharyngeal cancer HONE1 cell; test: as above; type: cell-based, human; details: HONE1; short peptide 10 μg/mL or 225 nM + euPTX3 2.5 μg/mL 1 week, then 40 μM CDDP or 100 μM 5-FU 48 hours; FIG. 3B
Method: as §5

breast cancer MB231 cell [11] = test: as above; type: cell-based, human; details: MB231; short peptide 10 μg/mL or 225 nM + euPTX3 2.5 μg/mL 1 week, then 40 μM CDDP or 100 μM 5-FU 48 hours; FIG. 1D
Method: as §5

[12] = MB231R (MBR), identical molecular number: euPTX3 2.5 μg/mL, RI37 3.7 μg/mL, GI40 4 μg/mL, pPTX3/C 10 μg/mL, FIG. 5B right panel
[13] = breast cancer cells, short peptide 10 μg/mL + euPTX3 2.5 μg/mL, FIG. 1E right panel
[14] = MB231R (MBR), identical molecular number: euPTX3 2.5 μg/mL, RI37 3.7 μg/mL, GI40 4 μg/mL, pPTX3/C 10 μg/mL, FIG. 5B left panel
[15] = breast cancer cells, short peptide 10 μg/mL + euPTX3 2.5 μg/mL, FIG. 1E left panel

Substance | number of spheres induced by the polypeptide euPTX3 (lung cancer A549 cell [1]) | number of spheres induced by the polypeptide euPTX3 [2] | number of spheres induced by the polypeptide euPTX3 (breast cancer MB231 cell [3]) | invasive cell numbers induced by the polypeptide euPTX3 [4, 12] | invasive cell numbers induced by the polypeptide euPTX3 [4, 13] | drug resistance generated by the tumor [5] | tumor growth (tumor size) [5] | tumor metastasis and growth (images of tumors of various organs, epi-fluorescence radiance efficiency) ([5]; FIG. 4C) | tumor metastasis (number of metastatic nodules per lung) [5] | tumor growth (tumor weight per lung) [5] | migrated cell numbers induced by the polypeptide euPTX3 (lung cancer A549 cell [6]) | migrated cell numbers induced by the polypeptide euPTX3 [7] | migrated cell numbers induced by the polypeptide euPTX3 [8, 14] | migrated cell numbers induced by the polypeptide euPTX3 [8, 15] | drug resistance induced by the polypeptide euPTX3 (cell viability) (lung cancer A549 cell [9]) | drug resistance induced by the polypeptide euPTX3 (cell viability) [10] | drug resistance induced by the polypeptide euPTX3 (cell viability) (breast cancer MB231 cell [11]) | metastatic nodules in organs (imaging) ([5]; FIG. 4C)
GI40: artificially synthetic short peptide having the amino acid sequence listed as SEQ ID NO:2, designed from human PTX3 (NP_002843.2) (GGGFDETLAFSGRLTGFNIWDSVLSNEEIRETGGAESCHI; The 320th amino acid to 359th amino acid of Human sapiens PTX3 (GI40)) | could effectively inhibit the number of spheres | could effectively inhibit the number of spheres | could effectively inhibit the number of spheres | could effectively inhibit the invasive cell numbers | could effectively inhibit the invasive cell numbers | reduce the drug resistance | could inhibit tumor growth | could inhibit tumor metastasis and growth | could inhibit tumor metastasis | could inhibit tumor metastasis and growth | could effectively inhibit the migrated cell numbers | could effectively inhibit the migrated cell numbers | could effectively inhibit the migrated cell numbers | could effectively inhibit the migrated cell numbers | could effectively inhibit the drug resistance | could effectively inhibit the drug resistance | could effectively inhibit the drug resistance | 
KT44: artificially synthetic peptide having the amino acid sequence listed as SEQ ID NO:3 (KLVAEAMVSLGRWTHLCGTWNSEEGLTSLWVNGELAATTVEMAT; The 255th amino acid to 298th amino acid of Human sapiens PTX3 (KT44)) | could not inhibit the number of spheres | could not inhibit the number of spheres | could not inhibit the number of spheres |  | could not inhibit the invasive cell numbers |  | could not significantly inhibit the tumor growth | could not significantly inhibit tumor metastasis and growth | could not significantly inhibit tumor metastasis | could not significantly inhibit tumor metastasis and growth | could not inhibit the migrated cell numbers | could not inhibit the migrated cell numbers |  | could not inhibit the migrated cell numbers | could not significantly inhibit the drug resistance | could not significantly inhibit the drug resistance | could not significantly inhibit the drug resistance | metastatic nodules was found in lungs
RI37: artificially synthetic short peptide having the amino acid sequence listed as SEQ ID NO:1, designed from human PTX3 (NP_002843.2) (RPMRLESFSACIWVKATDVLNKTILFSYGTKRNPYEI; The 200th amino acid to 236th amino acid of Human sapiens PTX3 (RI37)) | could effectively inhibit the number of spheres | could effectively inhibit the number of spheres | could effectively inhibit the number of spheres | could effectively inhibit the invasive cell numbers | could effectively inhibit the invasive cell numbers | reduce the drug resistance | could inhibit tumor growth | could inhibit tumor metastasis and growth | could inhibit tumor metastasis | could inhibit tumor metastasis and growth | could effectively inhibit the migrated cell numbers | could effectively inhibit the migrated cell numbers | could effectively inhibit the migrated cell numbers | could effectively inhibit the migrated cell numbers | could effectively inhibit the drug resistance | could effectively inhibit the drug resistance | could effectively inhibit the drug resistance | 
